Series [1] is described as follows: Adsorption of MB-102 to CRRT apparatus, in vitro CVVH model. Type of series: in vitro ADME, bovine. The following applies: for mean percent change at the end of experiment: average of 6 experiments, 60 min. The method, then: As an initial step, it was determined if the compound MB-102 adsorbs onto the hemodiafilter, tubing or other parts of the CRRT instrument. This study used a continuous venovenous hemofiltration (CVVH) configuration to assess MB-102 adsorptive clearance with a previously validated in vitro CVVH model using 1 L of pH regulated, citrate-anti-coagulated bovine blood. Using a Braun DIAPACT™ CRRT system, two different hemodiafilters were tested: the HF1400 and the M150 hemodiafilters. New bovine blood, hemodiafilters, and CRRT tubing sets were used in each experiment. The blood was continuously stirred and maintained at 37° C. in a water bath during all experiments. Reconstituted MB-102 was added to the blood to achieve a final concentration of ˜6.2 mg/L. Urea was used as a control and added to the blood to produce a blood urea nitrogen (BUN) concentration of ˜75 mg/dL. Blood flow rates of 200 mL/min with an ultrafiltration rate (Quf) of 33 mL/min were tested. This maximized MB-102 contact with the membranes, both on the blood side and via convection through the hemodiafilter membrane. A closed system was developed to maintain a constant volume in the extracorporeal system. The effluent was used as the replacement fluid which was returned to the blood as a post-filter replacement fluid to maintain a constant blood volume. The CRRT instrument was primed with normal saline before operation, consequently the urea and MB-102 dilution caused by the residual priming solution was accounted for. Blood samples were collected from the pre-filter port at 0 (baseline), 5 (at which time mixing was complete), 10, 20, 30, and 60 minutes. Each experiment was repeated six times with new hemodiafilters and tubing sets.
Equations used to calculate the dilution factor and adsorption are as follows:
[formula] wherein C0 is the concentration of MB-102 in the pre-filter at time=0 minutes; and C60 is the concentration of MB-102 in the pre-filter at time=60 minutes.
[formula] where [Urea0] is the urea concentration in the pre-filter at time=0 minutes; and [Urea60] is the urea concentration in the pre-filter at time=60 minutes.
All blood samples were collected and centrifuged at 3000 rpm for 10 minutes. The plasma and effluent samples were transferred to cryovials in duplicate and stored at −80° C. until analysis. BUN concentrations were analyzed with Advia 1800 (Siemens Healthcare Diagnostic Inc., Tarrytown, N.Y., USA) having a lower limit of quantification of 5 mg/dL. […]

Series [2] is described as follows: In vivo clearance by CVVH in porcine model with bilateral nephrectomy. Also noted: species or system Swine. As for the experimental part: Swine (3 male and 3 female, for both CVVH and CVVHD modalities) weighing 35-40 kg were used. In this model, a total functional nephrectomy was achieved by ligation of all renal arteries. Animals were inspected by professional veterinary staff within 48 hours of arrival. Any underlying infections or parasitism was treated based on veterinary recommendations.
Prior to study, the animals were fasted overnight (with water ad libitum) to reduce the risk of aspiration. On the morning of the study, animals were sedated with an intramuscular injection of Telazol/Xylazine (or a Ketamine/xylazine combination) at recommended doses and transported to the operating theatre. Pigs were then anesthetized via inhalation of 5% isoflurane in oxygen via mask. A catheter was placed in the marginal ear vein to provide immediate venous access for further medications and IV fluids.
Pigs were orotracheally intubated and the isoflurane concentration reduced to 1%-3% to maintain anesthesia for the duration of the experiment. Pigs were mechanically ventilated using a tidal volume of 10 mL/kg and respiratory rate adjusted to keep a P(CO2) of 40±2 mmHg. A three lead electrocardiogram was used to monitor heart rate and rhythm. Core body temperature was measured with a rectal thermistor probe and maintained at 37-39° C. with the use of a circulating water blanket.
Hair was removed from the ventral neck, abdominal and/or the femoral regions, and these sites were prepared for aseptic surgery. Lidocaine was injected at incision site(s). When a surgical plane of anesthesia was reached, the right carotid artery was approached via cut down incision and cannulated for continuous blood pressure monitoring. This facilitated withdrawal of blood samples for the study and for the determination of respiratory gases, acid-base status and glucose concentration. A catheter was placed in the right jugular/femoral vein to infuse medications or replacement fluids and an 11 Fr hemodialysis catheter was placed into the left jugular vein for both CVVH and CVVHD procedures.
The abdomen was then opened via a midline laparotomy. The renal hilum was identified, and ties were placed around the renal artery or arteries: for partial or total ligation as dictated by study requirements (full-function nephrectomy via total ligation of all renal arteries, and full-function nephrectomy of one kidney and partial ligation of the second kidney). Perivascular flow probes were placed around the proximal renal artery of the kidneys in situ, as required. […] A purse-sting suture was placed in the urinary bladder and a small cystotomy incision was performed to advance a Foley catheter for urine collection and quantification, as required.
Due to the length of time of study, the abdomen was closed in 2-3 layers with appropriate suture material to prevent desiccation of tissues. Suture patterns allowed for external extension of tubing and flow probe lines for equipment attachment as required. Following complete instrumentation, the pig was stabilized. Vital signs were monitored continuously and, once stable, either the CVVH and CVVHD experiment was initiated.
After taking a pre-MB-102 blood sample (baseline), a dose of 6 mg/kg of MB-102 was injected as a single bolus, followed by a 90 minute period of equilibration, to allow for MB-102 systemic redistribution (see FIGS. 7 and 13 for equilibration of fluorescent signal detected by the renal monitoring assembly). Thirty minutes after the MB-102 injection, Meropenum was infused for 30 minutes, which reached a peak concentration in blood ˜1 hr after the start of the infusion. After drug equilibration, CRRT was initiated (either CVVH or CVVHD) at a blood flow rate (BFR) of 100 mL/min with corresponding 20 mL/kg/hr effluent rate during a time-course of 90 minutes (with collections at 0, 30, 60, 90 minutes). […]

The conditions of series [3]: stated as pharmacokinetic parameter, no test described; cited from earlier work.
[4] abbreviates: assembly on chest (QLS26), blood flow rate 100, effluent flow rate 20 mL/min, 1st of four regions.
The mark [5] stands for this setting: assembly on chest (QLS26), blood flow rate 100, effluent flow rate 20 mL/min, 3rd of four regions.
The mark [6] stands for this setting: assembly on chest (QLS26), blood flow rate 200, effluent flow rate 35 mL/min, 2nd of four regions.
[7] abbreviates: assembly on chest (QLS26), blood flow rate 200, effluent flow rate 35 mL/min, 4th of four regions.
[8] abbreviates: assembly on sternum (QLS25), blood flow rate 100, effluent flow rate 20 mL/min, 1st of four regions.
[9] abbreviates: assembly on sternum (QLS25), blood flow rate 100, effluent flow rate 20 mL/min, 3rd of four regions.
[10] abbreviates: assembly on sternum (QLS25), blood flow rate 200, effluent flow rate 35 mL/min, 2nd of four regions.
[11] abbreviates: assembly on sternum (QLS25), blood flow rate 200, effluent flow rate 35 mL/min, 4th of four regions.

“Also recorded” adds a separate entry of the source.

Take `Nc1nc(C(=O)N[C@H](CO)C(=O)O)c(N)nc1C(=O)N[C@H](CO)C(=O)O` [MB-102, (2R,2′R)-2,2′-((3,6-diaminopyrazine-2,5-dicarbonyl)bis(azanediyl))bis(3-hydroxypropanoic acid)]: the “adsorption to CRRT materials (tubing, hemodiafilters)” value in series [1] (HF1400 and M150 hemodiafilters) was “not observed; also recorded: does not bind”. The figures for the “mean percent change at the end of experiment” value in series [1] (HF1400 hemodiafilter) and in series [1] (M150 hemodiafilter) were 18.7% and 18.9%, respectively. In addition, the “MB-102 Clearance Rate Constant” value in series [2] (setting [4]) is 0.1129 h⁻¹; in series [2] (setting [5]) it was 0.0879 h⁻¹; in series [2] (setting [6]) it was 0.1314 h⁻¹; in series [2] (setting [7]), 0.1308 h⁻¹; in series [2] (setting [8]), 0.1145 h⁻¹; in series [2] (setting [9]) it was 0.0763 h⁻¹. Further, the entries for the “MB-102 Clearance Rate Constant” value in series [2] (setting [10]) and in series [2] (setting [11]) were 0.145 h⁻¹ and 0.1238 h⁻¹, respectively. The RDTC in series [2] (setting [4]) was determined as 8.86 h; in series [2] (setting [5]), 11.38 h; in series [2] (setting [6]) it was 7.61 h; in series [2] (setting [7]), 7.64 h; in series [2] (setting [8]), 8.73 h; in series [2] (setting [9]), 13.11 h. In addition, the results for the RDTC in series [2] (setting [10]) and in series [2] (setting [11]) were 6.90 h and 8.08 h, respectively. The protein binding in series [3] is given as 0%.

These data come from US12102432B2, “Uses of transdermal glomerular filtration rate measurement in continuous renal replacement therapy” (MediBeacon Inc., priority 2018, dated 2024).
